This is an account of results in US20250026722A1, “SUBSTITUTED QUINOLINES AS IMPROVED NF-KB-INDUCING KINASE (NIK) INHIBITORS” (YUKIN THERAPEUTICS, priority 2021, published 2025).

The target in assay [1] is T1, NIK (Homo sapiens, UniProt Q99558).
T1 construct: A375 cells were plated in 6-well dishes at 2,000 cells/cm^2; endogenous in cells; host or cells: A375 cells
The conditions noted are these: pan kinase inhibitor, literature; cited from earlier work.

Assay [2] deals with T1, NIK. Briefly: NIK degradation Western-blot experiments in A375 cells. The following applies: 10 μM for 72 hrs, 5 μM MG132 during last 4 hours. The format is cell-based. The protocol:
A375 cells were plated in 6-well dishes at 2,000 cells/cm^2. The day after, cells were treated for 72 hrs with compounds of the examples at 10 μM. Cells were treated during the last 4 hours of the treatment period with 5 μM MG132 to inhibit proteasomal degradation. For protein isolation, cells were washed twice with PBS and then lysed using RIPA Buffer (1×) containing protease and phosphatase inhibitors. Following sonication, the lysate was centrifuged at 20,000 g for 10 min at 4° C. and the supernatants were collected and assayed for protein concentration using the BCA kit (Pierce).
Total protein (20 μg) was separated by electrophoresis on 10% SDS-polyacrylamide gels and transferred to PVDF membranes (Millipore). Blocking was performed in Tris-buffer saline containing 3% BSA. Membranes were incubated with the appropriate primary antibodies overnight at 4° C. (NIK, CST #4994, 1/2000) and β-actin (Santa-Cruz, sc-47778, 1/5000). After washing three times, membranes were incubated with horseradish peroxidase-conjugated secondary antibodies for 1 h. Bound antibodies were detected using an enhanced chemiluminescence plus kit (GE Healthcare). NIK degradation was tested and confirmed for the compounds of Examples 3, 4, 5, 6, 10 and 11 (see the corresponding table below). For illustration, the Western blot analysis of NIK degradation in cells treated with the compound of Example 3 (at 10 μM for 72 h) is shown in FIG. 1.

Assay [3] relates to A375 cells. Put plainly: Proliferation assay in A375 cells (confocal imaging after seven days with compound). The format is cell-based. The conditions noted are these: Homo sapiens, A-375, 168 h, seven days in the presence of compounds. Here is the method:
(§1) A375 (American Type Culture Collection; CRL-1619) cells were seeded into 96 well plates (1,200 cells/well; Perkin Elmer; 6005225) and incubated overnight at 37° C., 5% CO2. Compounds prepared in media (Dulbecco's modified Eagle medium+10% foetal bovine serum+1% penicillin/streptomycin) were added to the cells and incubated for four days at 37° C., 5% CO2. Media was then aspirated from the cells and freshly prepared compounds were added to the cells, which were then incubated for a further three days at 37° C., 5% CO2. After a total of seven days in the presence of compounds, media was removed, and the cells were labelled with Hoechst (1 in 1,000; Thermo Fisher; 62249), TOTO™-3 (1 in 10,000; Thermo Fisher; T3604) and SPiDER βGAL (1.0 μM; Sigma-Aldrich; 94433) prepared in Hanks' Balanced Salt Solution supplemented with 1.0 mM HEPES buffer for 20 minutes at 37° C. Cells were imaged by confocal microscopy using an ImageXpress (Molecular Devices) at ×10 magnification. Images were analysed using MetaXpress software (Molecular Devices).

Assay [4] concerns A375 cells. Put plainly: Senescence assay in A375 cells (SPiDER βGAL labelling, confocal imaging after seven days with compound). It counts as cell-based. The following applies: Homo sapiens, A-375, 168 h, seven days in the presence of compounds. The protocol: as §1

T1 sequence (Q99558 whole entry): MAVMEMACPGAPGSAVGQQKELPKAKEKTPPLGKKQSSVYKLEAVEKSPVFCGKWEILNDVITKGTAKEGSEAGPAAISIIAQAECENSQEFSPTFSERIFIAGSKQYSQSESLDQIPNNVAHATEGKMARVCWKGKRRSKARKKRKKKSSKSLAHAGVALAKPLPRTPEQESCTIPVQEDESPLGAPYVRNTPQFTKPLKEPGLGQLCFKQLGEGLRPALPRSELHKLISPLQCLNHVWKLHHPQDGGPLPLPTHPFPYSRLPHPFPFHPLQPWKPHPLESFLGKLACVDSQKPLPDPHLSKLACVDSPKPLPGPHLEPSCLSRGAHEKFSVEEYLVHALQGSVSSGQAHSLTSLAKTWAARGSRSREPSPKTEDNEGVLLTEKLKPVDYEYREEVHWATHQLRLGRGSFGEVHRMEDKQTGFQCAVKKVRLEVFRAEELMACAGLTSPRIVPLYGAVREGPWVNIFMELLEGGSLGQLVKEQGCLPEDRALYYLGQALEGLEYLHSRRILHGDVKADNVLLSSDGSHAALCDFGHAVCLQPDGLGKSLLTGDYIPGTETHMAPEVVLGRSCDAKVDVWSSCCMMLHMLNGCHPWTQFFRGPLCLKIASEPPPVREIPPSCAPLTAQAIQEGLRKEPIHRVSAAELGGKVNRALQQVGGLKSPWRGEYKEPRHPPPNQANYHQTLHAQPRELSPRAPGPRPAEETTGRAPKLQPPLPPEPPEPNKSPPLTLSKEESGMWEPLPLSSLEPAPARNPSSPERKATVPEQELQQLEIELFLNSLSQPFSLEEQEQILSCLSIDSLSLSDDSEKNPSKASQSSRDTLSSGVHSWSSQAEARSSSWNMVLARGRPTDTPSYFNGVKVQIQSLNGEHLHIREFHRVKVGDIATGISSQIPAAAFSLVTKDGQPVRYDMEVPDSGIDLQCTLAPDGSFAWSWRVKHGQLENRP

For `CN[C@@H]1C[C@H]2O[C@@](C)([C@@H]1OC)n1c3ccccc3c3c4c(c5c6ccccc6n2c5c31)C(=O)NC4` [staurosporine], the “inhibition of the kinase activity (NIK)” value on NIK [1] is on record as “micromolar level”.
With `COCCOc1ccc(Nc2ccnc3cc(-c4cnn(C)c4)ccc23)c(OC)c1` [Example 4, N-(2-methoxy-4-(2-methoxyethoxy)phenyl)-7-(1-methyl-1H-pyrazol-4-yl)quinolin-4-amine], the NIK degradation activity result on NIK [2] is listed as “confirmed”.
Turning to `COCCOc1ccc(Nc2ccnc3cc(N4CCN(C)CC4)ccc23)c(OC)c1` [Example 6, N-(2-methoxy-4-(2-methoxyethoxy)phenyl)-7-(4-methylpiperazin-1-yl)quinolin-4-amine], the NIK degradation activity entry at NIK [2] is recorded as “confirmed”.
For orientation: IC50 means the concentration that gives 50% inhibition. As a reminder, the EC50 is the concentration needed to bring the measured effect to its halfway point. For `COCCOc1ccc(Nc2ccnc3cc(C)ccc23)c(OC)c1` [Example 10, N-(2-methoxy-4-(2-methoxyethoxy)phenyl)-7-methylquinolin-4-amine], in the assay with A375 cells [3], the IC50 amounted to 195 nM. For the same compound, the EC50 in the assay with A375 cells [4] was found to be 670 nM. On NIK [2], the NIK degradation activity result is given as “confirmed”.
Regarding `COCCOc1ccc(Nc2ccnc3cc(Cl)ccc23)cc1` [Reference compound (*), 7-chloro-N-(4-(2-methoxyethoxy)phenyl)quinolin-4-amine], the IC50 in the assay with A375 cells [3] is 1690 nM. Besides, the EC50 in the assay with A375 cells [4] stood at 2490 nM.
With `COCCOc1ccc(Nc2ccnc3cc(C(F)F)ccc23)c(OC)c1` [Example 9, 7-(difluoromethyl)-N-(2-methoxy-4-(2-methoxyethoxy)phenyl)quinolin-4-amine], in the assay on A375 cells [3], the IC50 was determined as 205 nM. Besides, in the assay on A375 cells [4], the EC50 came to 200 nM.
Regarding `COc1ccc(Nc2ccnc3cc(Cl)ccc23)cc1O` [Reference compound (**), 7-chloro-N-(3-(hydroxy)-4-(methoxy)phenyl)quinolin-4-amine], in the assay on A375 cells [3], the IC50 is above 10000 nM. The EC50 with A375 cells [4] is above 10000 nM.
Take `COCCOc1ccc(Nc2ccnc3cc(C(F)F)ccc23)cc1`: the 50% inhibitory concentration (IC50) with A375 cells [3] is 1740 nM. For the same compound, the EC50 in the assay on A375 cells [4] is 2310 nM.
Regarding `COCCOc1ccc(Nc2ccnc3cc(C4=CCN(C)CC4)ccc23)c(OC)c1` [Example 5, N-(2-methoxy-4-(2-methoxyethoxy)phenyl)-7-(1-methyl-1,2,3,6-tetrahydropyridin-4-yl)quinolin-4-amine], the NIK degradation activity result at NIK [2] is recorded as “confirmed”.
On the same count and under the same terms, as for `COCCOc1ccc(Nc2ccnc3cc(OC)ccc23)c(OC)c1` [Example 3, 7-methoxy-N-(2-methoxy-4-(2-methoxyethoxy)phenyl)quinolin-4-amine], the entry is “confirmed”.
`COCCOc1ccc(Nc2ccnc3cc(C)ccc23)cc1`: the IC50 in the assay with A375 cells [3] came to 1900 nM. The EC50 with A375 cells [4] turned out to be 2460 nM.
For the compound `COCCOc1ccc(Nc2ccnc3cc(C4CCN(C)CC4)ccc23)c(OC)c1` [Example 11, N-(2-methoxy-4-(2-methoxyethoxy)phenyl)-7-(1-methylpiperidin-4-yl)quinolin-4-amine], the NIK degradation activity result at NIK [2] is recorded as “confirmed”.
